The subject of the assay is Menschlicher Saccus endolymphaticus. Put plainly: Light-microscopic autoradiography of 125I-arginine-vasopressin binding on frozen tissue sections. The note with it: overnight at 4 °C; unspecific binding checked with 10 µM unlabelled Arginin-Vasopressin. Also noted: species or system menschlich. On the procedure:
Menschlicher Saccus endolymphaticus wurde von sechs Autopsien und zwei operierten Patienten mit Einwilligung der Verwandten bzw. der Patienten erhalten. Gefrorene Schnitte (20 µm) wurden auf einem Kryostaten bei -16 °C geschnitten, auf Gelatine-beschichtete Plättchen aufgebracht und über Nacht unter Vakuum bei 4 °C gelagert. […] Die radiomarkierten Schnitte wurden mit NTB-2 Nuklearemulsion (Eastman Kodak) beschichtet und für die lichtmikroskopische Autoradiographie präpariert. Die beschichteten Plättchen wurden in der Dunkelheit bei 4 °C für drei bis acht Tage gelagert. Nach Entwickeln und Fixieren wurden die Plättchen mit Haematoxylin/Eosin gefärbt.

On to “^125I-Arginin-Vasopressin [radioaktivem Vasopressin]”, for which the “Bindung im Epithel des endolymphatischen Sacks” value is recorded as “spezifische Bindung”.

Values taken from patent publication EP1028725B1, “USE OF VASOPRESSIN ANTAGONISTS FOR TREATING DISTURBANCES OR ILLNESSES OF THE INNER EAR” (Otogene Aktiengesellschaft, priority 1997, dated 2004).
